Assay results as given in ChEMBL document CHEMBL1201861, “Genomics of Drug Sensitity in Cancer screening data, Wellcome Trust Sanger Institute”.

These compounds were tested on HC-1 (assay: cells). Details: Homo sapiens, HC-1.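 Note: growth inhibition of HC-1 cells measured by a cell viability assay.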
Format: functional, cell-based, Homo sapiens
Description: SANGER: Inhibition of human HC-1 cell growth in a cell viability assay.

Compound | IC50 [nM]
COc1cc2ncn(-c3cc(OCc4ccccc4C(F)(F)F)c(C(N)=O)s3)c2cc1OC [GW843682X] | 26.2

These compounds were tested on CGTH-W-1 (assay: cells). Details: Homo sapiens, CGTH-W-1.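 Note: growth inhibition of human CGTH-W-1 cells measured by cell viability assay.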
Format: functional, cell-based, Homo sapiens
Description: SANGER: Inhibition of human CGTH-W-1 cell growth in a cell viability assay.

Compound | IC50 [nM]
COc1cc2ncn(-c3cc(OCc4ccccc4C(F)(F)F)c(C(N)=O)s3)c2cc1OC [GW843682X] | > 256

What follows are compounds tested on OVCAR-4 (assay: cells). Details: Homo sapiens, OVCAR-4.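 Note: growth inhibition of human OVCAR-4 cells, measured with a cell viability assay.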
Format: functional, cell-based, Homo sapiens
Description: SANGER: Inhibition of human OVCAR-4 cell growth in a cell viability assay.

Compound | IC50 [nM]
COc1cc2ncn(-c3cc(OCc4ccccc4C(F)(F)F)c(C(N)=O)s3)c2cc1OC [GW843682X] | 71.5

These compounds were tested on MSTO-211H (assay: cells). Details: Homo sapiens, MSTO-211H.
Format: functional, cell-based, Homo sapiens
Description: SANGER: Inhibition of human MSTO-211H cell growth in a cell viability assay.

Compound | IC50 [nM]
COc1cc2ncn(-c3cc(OCc4ccccc4C(F)(F)F)c(C(N)=O)s3)c2cc1OC [GW843682X] | > 256

Each compound was assayed on NOMO-1 (assay: cells). Details: Homo sapiens, NOMO-1.
Format: functional, cell-based, Homo sapiens
Description: SANGER: Inhibition of human NOMO-1 cell growth in a cell viability assay.

Compound | IC50 [nM]
COc1cc2ncn(-c3cc(OCc4ccccc4C(F)(F)F)c(C(N)=O)s3)c2cc1OC [GW843682X] | > 256

The compounds below were run on HCC2157 (assay: cells). Details: Homo sapiens, HCC2157.
Format: functional, cell-based, Homo sapiens
Description: SANGER: Inhibition of human HCC2157 cell growth in a cell viability assay.

Compound | IC50 [nM]
COc1cc2ncn(-c3cc(OCc4ccccc4C(F)(F)F)c(C(N)=O)s3)c2cc1OC [GW843682X] | > 256

What follows are compounds tested on MOLT-16 (assay: cells). Details: Homo sapiens, MOLT-16.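 Note: growth inhibition of human MOLT-16 cells, read out with a cell viability assay.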
Format: functional, cell-based, Homo sapiens
Description: SANGER: Inhibition of human MOLT-16 cell growth in a cell viability assay.

Compound | IC50 [nM]
COc1cc2ncn(-c3cc(OCc4ccccc4C(F)(F)F)c(C(N)=O)s3)c2cc1OC [GW843682X] | 31.5

These compounds were tested on NCI-H1650 (assay: cells). Details: Homo sapiens, NCI-H1650.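 Note: growth inhibition of human NCI-H1650 cells measured by a cell viability assay.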
Format: functional, cell-based, Homo sapiens
Description: SANGER: Inhibition of human NCI-H1650 cell growth in a cell viability assay.

Compound | IC50 [nM]
COc1cc2ncn(-c3cc(OCc4ccccc4C(F)(F)F)c(C(N)=O)s3)c2cc1OC [GW843682X] | > 256

Each compound was assayed on LS-1034 (assay: cells). Details: Homo sapiens, LS-1034.
Format: functional, cell-based, Homo sapiens
Description: SANGER: Inhibition of human LS-1034 cell growth in a cell viability assay.

Compound | IC50 [nM]
COc1cc2ncn(-c3cc(OCc4ccccc4C(F)(F)F)c(C(N)=O)s3)c2cc1OC [GW843682X] | 59.7

What follows are compounds tested on COLO-824 (assay: cells). Details: Homo sapiens, COLO-824.
Format: functional, cell-based, Homo sapiens
Description: SANGER: Inhibition of human COLO-824 cell growth in a cell viability assay.

Compound | IC50 [nM]
COc1cc2ncn(-c3cc(OCc4ccccc4C(F)(F)F)c(C(N)=O)s3)c2cc1OC [GW843682X] | > 256

What follows are compounds tested on IA-LM (assay: cells). Details: Homo sapiens, IA-LM.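 Note: cell viability assay measuring growth inhibition of human IA-LM cells.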
Format: functional, cell-based, Homo sapiens
Description: SANGER: Inhibition of human IA-LM cell growth in a cell viability assay.

Compound | IC50 [nM]
COc1cc2ncn(-c3cc(OCc4ccccc4C(F)(F)F)c(C(N)=O)s3)c2cc1OC [GW843682X] | 11.2

Each compound was assayed on SW 962 (assay: cells). Details: Homo sapiens, SW 962.
Format: functional, cell-based, Homo sapiens
Description: SANGER: Inhibition of human SW962 cell growth in a cell viability assay.

Compound | IC50 [nM]
COc1cc2ncn(-c3cc(OCc4ccccc4C(F)(F)F)c(C(N)=O)s3)c2cc1OC [GW843682X] | 42.2

Each compound was assayed on D283 Med (assay: cells). Details: Homo sapiens, D283 Med.
Format: functional, cell-based, Homo sapiens
Description: SANGER: Inhibition of human D-283MED cell growth in a cell viability assay.

Compound | IC50 [nM]
COc1cc2ncn(-c3cc(OCc4ccccc4C(F)(F)F)c(C(N)=O)s3)c2cc1OC [GW843682X] | > 256

What follows are compounds tested on KP-N-YS (assay: cells). Details: Homo sapiens, KP-N-YS.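 Note: cell viability assay measuring inhibition of cell line growth.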
Format: functional, cell-based, Homo sapiens
Description: SANGER: Inhibition of human KP-N-YS cell growth in a cell viability assay.

Compound | IC50 [nM]
COc1cc2ncn(-c3cc(OCc4ccccc4C(F)(F)F)c(C(N)=O)s3)c2cc1OC [GW843682X] | 27.2

These compounds were tested on HAL-01 (assay: cells). Details: Homo sapiens, HAL-01.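 Note: growth inhibition of human HAL-01 cells, read out with a cell viability assay.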
Format: functional, cell-based, Homo sapiens
Description: SANGER: Inhibition of human HAL-01 cell growth in a cell viability assay.

Compound | IC50 [nM]
COc1cc2ncn(-c3cc(OCc4ccccc4C(F)(F)F)c(C(N)=O)s3)c2cc1OC [GW843682X] | 80.8

What follows are compounds tested on L-428 (assay: cells). Details: Homo sapiens, L-428.
Format: functional, cell-based, Homo sapiens
Description: SANGER: Inhibition of human L-428 cell growth in a cell viability assay.

Compound | IC50 [nM]
COc1cc2ncn(-c3cc(OCc4ccccc4C(F)(F)F)c(C(N)=O)s3)c2cc1OC [GW843682X] | 110

Each compound was assayed on A3-KAW (assay: cells). Details: Homo sapiens, A3-KAW.
Format: functional, cell-based, Homo sapiens
Description: SANGER: Inhibition of human A3-KAW cell growth in a cell viability assay.

Compound | IC50 [nM]
COc1cc2ncn(-c3cc(OCc4ccccc4C(F)(F)F)c(C(N)=O)s3)c2cc1OC [GW843682X] | 51.7

The compounds below were run on MFH-ino (assay: cells). Details: Homo sapiens, MFH-ino.
Format: functional, cell-based, Homo sapiens
Description: SANGER: Inhibition of human MFH-ino cell growth in a cell viability assay.

Compound | IC50 [nM]
COc1cc2ncn(-c3cc(OCc4ccccc4C(F)(F)F)c(C(N)=O)s3)c2cc1OC [GW843682X] | 35.5

What follows are compounds tested on BB65-RCC (assay: cells). Details: Homo sapiens, BB65-RCC.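 Note: growth inhibition of the cell line, measured with a cell viability assay.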
Format: functional, cell-based, Homo sapiens
Description: SANGER: Inhibition of human BB65-RCC cell growth in a cell viability assay.

Compound | IC50 [nM]
COc1cc2ncn(-c3cc(OCc4ccccc4C(F)(F)F)c(C(N)=O)s3)c2cc1OC [GW843682X] | 68.9

What follows are compounds tested on TGW (assay: cells). Details: Homo sapiens, TGW.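 Note: growth inhibition of human TGW cells, read out with a cell viability assay.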
Format: functional, cell-based, Homo sapiens
Description: SANGER: Inhibition of human TGW cell growth in a cell viability assay.

Compound | IC50 [nM]
COc1cc2ncn(-c3cc(OCc4ccccc4C(F)(F)F)c(C(N)=O)s3)c2cc1OC [GW843682X] | 34.7

Each compound was assayed on OCUB-M (assay: cells). Details: Homo sapiens, OCUB-M.
Format: functional, cell-based, Homo sapiens
Description: SANGER: Inhibition of human OCUB-M cell growth in a cell viability assay.

Compound | IC50 [nM]
COc1cc2ncn(-c3cc(OCc4ccccc4C(F)(F)F)c(C(N)=O)s3)c2cc1OC [GW843682X] | 12.2

These compounds were tested on NEC8 (assay: cells). Details: Homo sapiens, NEC8.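 Note: growth inhibition of human NEC8 cells, read out by a cell viability assay.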
Format: functional, cell-based, Homo sapiens
Description: SANGER: Inhibition of human NEC8 cell growth in a cell viability assay.

Compound | IC50 [nM]
COc1cc2ncn(-c3cc(OCc4ccccc4C(F)(F)F)c(C(N)=O)s3)c2cc1OC [GW843682X] | 48.7

What follows are compounds tested on BE-13 (assay: cells). Details: Homo sapiens, BE-13.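 Note: growth inhibition of human BE-13 cells, measured with a cell viability assay.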
Format: functional, cell-based, Homo sapiens
Description: SANGER: Inhibition of human BE-13 cell growth in a cell viability assay.

Compound | IC50 [nM]
COc1cc2ncn(-c3cc(OCc4ccccc4C(F)(F)F)c(C(N)=O)s3)c2cc1OC [GW843682X] | 11

Each compound was assayed on EW-24 (assay: cells). Details: Homo sapiens, EW-24.
Format: functional, cell-based, Homo sapiens
Description: SANGER: Inhibition of human EW-24 cell growth in a cell viability assay.

Compound | IC50 [nM]
COc1cc2ncn(-c3cc(OCc4ccccc4C(F)(F)F)c(C(N)=O)s3)c2cc1OC [GW843682X] | > 256

The compounds below were run on NCI-H747 (assay: cells). Details: Homo sapiens, NCI-H747.
Format: functional, cell-based, Homo sapiens
Description: SANGER: Inhibition of human NCI-H747 cell growth in a cell viability assay.

Compound | IC50 [nM]
COc1cc2ncn(-c3cc(OCc4ccccc4C(F)(F)F)c(C(N)=O)s3)c2cc1OC [GW843682X] | 76.7

What follows are compounds tested on TE-11 (assay: cells). Details: Homo sapiens, TE-11.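 Note: growth inhibition of human TE-11 cells, read out by a cell viability assay.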
Format: functional, cell-based, Homo sapiens
Description: SANGER: Inhibition of human TE-11 cell growth in a cell viability assay.

Compound | IC50 [nM]
COc1cc2ncn(-c3cc(OCc4ccccc4C(F)(F)F)c(C(N)=O)s3)c2cc1OC [GW843682X] | 10.7

The compounds below were run on A101D (assay: cells). Details: Homo sapiens, A101D.
Format: functional, cell-based, Homo sapiens
Description: SANGER: Inhibition of human A101D cell growth in a cell viability assay.

Compound | IC50 [nM]
COc1cc2ncn(-c3cc(OCc4ccccc4C(F)(F)F)c(C(N)=O)s3)c2cc1OC [GW843682X] | 11.3

The compounds below were run on TE-5 (assay: cells). Details: Homo sapiens, TE-5.
Format: functional, cell-based, Homo sapiens
Description: SANGER: Inhibition of human TE-5 cell growth in a cell viability assay.

Compound | IC50 [nM]
COc1cc2ncn(-c3cc(OCc4ccccc4C(F)(F)F)c(C(N)=O)s3)c2cc1OC [GW843682X] | 23.4

What follows are compounds tested on GR-ST (assay: cells). Details: Homo sapiens, GR-ST.
Format: functional, cell-based, Homo sapiens
Description: SANGER: Inhibition of human GR-ST cell growth in a cell viability assay.

Compound | IC50 [nM]
COc1cc2ncn(-c3cc(OCc4ccccc4C(F)(F)F)c(C(N)=O)s3)c2cc1OC [GW843682X] | 84

Each compound was assayed on J-RT3-T3-5 (assay: cells). Details: Homo sapiens, J-RT3-T3-5.
Format: functional, cell-based, Homo sapiens
Description: SANGER: Inhibition of human J-RT3-T3-5 cell growth in a cell viability assay.

Compound | IC50 [nM]
COc1cc2ncn(-c3cc(OCc4ccccc4C(F)(F)F)c(C(N)=O)s3)c2cc1OC [GW843682X] | 21.2

These compounds were tested on MPP-89 (assay: cells). Details: Homo sapiens, MPP-89.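 Note: growth inhibition of human MPP-89 cells, read out with a cell viability assay.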
Format: functional, cell-based, Homo sapiens
Description: SANGER: Inhibition of human MPP-89 cell growth in a cell viability assay.

Compound | IC50 [nM]
COc1cc2ncn(-c3cc(OCc4ccccc4C(F)(F)F)c(C(N)=O)s3)c2cc1OC [GW843682X] | 226

What follows are compounds tested on A704 (assay: cells). Details: Homo sapiens, A704.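 Note: growth inhibition of human A704 cells, read out with a cell viability assay.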
Format: functional, cell-based, Homo sapiens
Description: SANGER: Inhibition of human A704 cell growth in a cell viability assay.

Compound | IC50 [nM]
COc1cc2ncn(-c3cc(OCc4ccccc4C(F)(F)F)c(C(N)=O)s3)c2cc1OC [GW843682X] | > 256

Each compound was assayed on SF-268 (assay: cells). Details: Homo sapiens, SF-268.
Format: functional, cell-based, Homo sapiens
Description: SANGER: Inhibition of human SF268 cell growth in a cell viability assay.

Compound | IC50 [nM]
COc1cc2ncn(-c3cc(OCc4ccccc4C(F)(F)F)c(C(N)=O)s3)c2cc1OC [GW843682X] | 83

What follows are compounds tested on SK-N-FI (assay: cells). Details: Homo sapiens, SK-N-FI.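 Note: cell viability assay measuring growth inhibition of human SK-N-FI cells.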
Format: functional, cell-based, Homo sapiens
Description: SANGER: Inhibition of human SK-N-FI cell growth in a cell viability assay.

Compound | IC50 [nM]
COc1cc2ncn(-c3cc(OCc4ccccc4C(F)(F)F)c(C(N)=O)s3)c2cc1OC [GW843682X] | 232

The compounds below were run on NCI-H720 (assay: cells). Details: Homo sapiens, NCI-H720.
Format: functional, cell-based, Homo sapiens
Description: SANGER: Inhibition of human NCI-H720 cell growth in a cell viability assay.

Compound | IC50 [nM]
COc1cc2ncn(-c3cc(OCc4ccccc4C(F)(F)F)c(C(N)=O)s3)c2cc1OC [GW843682X] | > 256

The compounds below were run on NCI-H1395 (assay: cells). Details: Homo sapiens, NCI-H1395.
Format: functional, cell-based, Homo sapiens
Description: SANGER: Inhibition of human NCI-H1395 cell growth in a cell viability assay.

Compound | IC50 [nM]
COc1cc2ncn(-c3cc(OCc4ccccc4C(F)(F)F)c(C(N)=O)s3)c2cc1OC [GW843682X] | > 256

The compounds below were run on BB30-HNC (assay: cells). Details: Homo sapiens, BB30-HNC.
Format: functional, cell-based, Homo sapiens
Description: SANGER: Inhibition of human BB30-HNC cell growth in a cell viability assay.

Compound | IC50 [nM]
COc1cc2ncn(-c3cc(OCc4ccccc4C(F)(F)F)c(C(N)=O)s3)c2cc1OC [GW843682X] | 34.1

These compounds were tested on GOTO (assay: cells). Details: Homo sapiens, GOTO.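 Note: growth inhibition of GOTO cells, read out by a cell viability assay.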
Format: functional, cell-based, Homo sapiens
Description: SANGER: Inhibition of human GOTO cell growth in a cell viability assay.

Compound | IC50 [nM]
COc1cc2ncn(-c3cc(OCc4ccccc4C(F)(F)F)c(C(N)=O)s3)c2cc1OC [GW843682X] | > 256

Each compound was assayed on 8-MG-BA (assay: cells). Details: Homo sapiens, 8-MG-BA.
Format: functional, cell-based, Homo sapiens
Description: SANGER: Inhibition of human 8-MG-BA cell growth in a cell viability assay.

Compound | IC50 [nM]
COc1cc2ncn(-c3cc(OCc4ccccc4C(F)(F)F)c(C(N)=O)s3)c2cc1OC [GW843682X] | 19.4

What follows are compounds tested on SK-MEL-1 (assay: cells). Details: Homo sapiens, SK-MEL-1.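 Note: growth inhibition of human SK-MEL-1 cells, read out by a cell viability assay.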
Format: functional, cell-based, Homo sapiens
Description: SANGER: Inhibition of human SK-MEL-1 cell growth in a cell viability assay.

Compound | IC50 [nM]
COc1cc2ncn(-c3cc(OCc4ccccc4C(F)(F)F)c(C(N)=O)s3)c2cc1OC [GW843682X] | > 256

Each compound was assayed on IST-MEL1 (assay: cells). Details: Homo sapiens, IST-MEL1.
Format: functional, cell-based, Homo sapiens
Description: SANGER: Inhibition of human IST-MEL1 cell growth in a cell viability assay.

Compound | IC50 [nM]
COc1cc2ncn(-c3cc(OCc4ccccc4C(F)(F)F)c(C(N)=O)s3)c2cc1OC [GW843682X] | 28.8

Each compound was assayed on ES6 (assay: cells). Details: Homo sapiens, ES6.
Format: functional, cell-based, Homo sapiens
Description: SANGER: Inhibition of human ES6 cell growth in a cell viability assay.

Compound | IC50 [nM]
COc1cc2ncn(-c3cc(OCc4ccccc4C(F)(F)F)c(C(N)=O)s3)c2cc1OC [GW843682X] | 6.19

Each compound was assayed on NCI-H82 (assay: cells). Details: Homo sapiens, NCI-H82.
Format: functional, cell-based, Homo sapiens
Description: SANGER: Inhibition of human NCI-H82 cell growth in a cell viability assay.

Compound | IC50 [nM]
COc1cc2ncn(-c3cc(OCc4ccccc4C(F)(F)F)c(C(N)=O)s3)c2cc1OC [GW843682X] | 15.2

These compounds were tested on GCIY (assay: cells). Details: Homo sapiens, GCIY.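 Note: growth inhibition of the human GCIY cell line, read out by a cell viability assay.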
Format: functional, cell-based, Homo sapiens
Description: SANGER: Inhibition of human GCIY cell growth in a cell viability assay.

Compound | IC50 [nM]
COc1cc2ncn(-c3cc(OCc4ccccc4C(F)(F)F)c(C(N)=O)s3)c2cc1OC [GW843682X] | 48

These compounds were tested on NB6 (assay: cells). Details: Homo sapiens, NB6.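 Note: growth inhibition of NB6 cells, read out by a cell viability assay.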
Format: functional, cell-based, Homo sapiens
Description: SANGER: Inhibition of human NB6 cell growth in a cell viability assay.

Compound | IC50 [nM]
COc1cc2ncn(-c3cc(OCc4ccccc4C(F)(F)F)c(C(N)=O)s3)c2cc1OC [GW843682X] | 142

The compounds below were run on L-363 (assay: cells). Details: Homo sapiens, L-363.
Format: functional, cell-based, Homo sapiens
Description: SANGER: Inhibition of human L-363 cell growth in a cell viability assay.

Compound | IC50 [nM]
COc1cc2ncn(-c3cc(OCc4ccccc4C(F)(F)F)c(C(N)=O)s3)c2cc1OC [GW843682X] | 81.2

These compounds were tested on ES4 (assay: cells). Details: Homo sapiens, ES4.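 Note: growth inhibition of human ES4 cells, read out by a cell viability assay.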
Format: functional, cell-based, Homo sapiens
Description: SANGER: Inhibition of human ES4 cell growth in a cell viability assay.

Compound | IC50 [nM]
COc1cc2ncn(-c3cc(OCc4ccccc4C(F)(F)F)c(C(N)=O)s3)c2cc1OC [GW843682X] | 18.4
